Data set [1] concerns HBV. The data set can be described thus: Anti-HBV activity in vitro in HepG2.2.15 cells (extracellular HBV DNA by qPCR). It counts as cell-based, Hepatitis B virus. The conditions noted are these: Hepatitis B virus; HepG2.2.15 cells; in-house data; read-out: EC50. The method, boiled down: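 HepG2.2.15 cells, which constitutively produce HBV, were seeded overnight and then treated for 5 days with half-log serially diluted compounds at 0.5% final DMSO. Extracellular HBV DNA in culture supernatant was extracted and quantified by qPCR.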
(In general: In qPCR the cycle at which signal appears reflects the starting amount.)

The test system of a further data set is HepDE19 cells. The data set can be described thus: Cytotoxicity (CC50) in HepDE19 cells, CCK-8 cell viability. It counts as cell-based. A digest of the protocol:
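HBV-transfected HepG2-derived HepDE19 cells grown in DMEM-F12 with 10% FBS and G418. Viability read five days after treatment by CCK-8, 2 h at 37 °C, absorbance at 450 and 630 nm.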

Data set [2] relates to HBV. The data set can be described thus: Selectivity index (CC50 value/EC50 value). It is filed as cell-based, Hepatitis B virus. A digest of the protocol:
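Ratio of CC50 to EC50, measuring antiviral activity against HBV relative to cytotoxicity in vitro; higher values indicate greater separation between viral inhibition and cell death.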

The nature of data set [3]: Metabolic stability study in human microsome. It counts as in vitro ADME. The method, boiled down:
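Human liver microsomes (0.5 mg/mL) with 1 μM compound in 100 mM phosphate pH 7.4 at 37 °C, started with 1 mM NADPH or an NADPH-regenerating system. Samples taken at 0, 3, 6, 9, 15 and 30 min, quenched in methanol. Parent remaining measured by LC-MS/MS; no-cofactor controls included.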

Data set [4] in a line: Lyophilisation solubility assay (Lysa). It counts as physicochemical. Conditions: phosphate buffer, pH 6.5, aqueous buffer, thermodynamic from solid. The method, boiled down: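 Duplicate samples from 10 mM DMSO stocks are dried, redissolved in 0.05 M phosphate buffer pH 6.5, stirred 1 h, shaken 2 h and left overnight. Filtrate and its 1/10 dilution are quantified by direct UV or HPLC-UV, giving solubility in μg/mL.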

Consider seven compounds from patent publication US9447086B2, “6-amino acid heteroaryldihydropyrimidines for the treatment and prophylaxis of hepatitis B virus infection” (priority 2012, dated 2016).

By EC50 is commonly meant the concentration needed to bring the measured effect to its halfway point. What is called CC50 is the concentration giving 50% cytotoxicity. Low readings indicate harm at low concentration, high ones better tolerance by the cells. In general, solubility (thermodynamic) refers to the concentration in solution at equilibrium with solid.

Consider `CCOC(=O)C1=C(CN2CCOC[C@H]2C(=O)O)NC(c2nccs2)=N[C@H]1c1ccc(F)c(F)c1Br` [Example 128, (3S)-4-[[(4R)-4-(2-Bromo-3,4-difluorophenyl)-5-ethoxycarbonyl-2-(1,3-thiazol-2-yl)-1,4-dihydropyrimidin-6-yl]methyl]morpholine-3-carboxylic acid], for which the EC50 in the data set with HBV [1] was 0.6 nM. In the data set on HepDE19 cells, this compound came in with a CC50 of 51000 nM. Further, the “Selectivity index (CC50/EC50)” value in the data set on HBV [2] is 85000. Also, in data set [3], the “Human Hepatic Clearance” value is recorded as 0.26 mL/min/kg. The solubility (thermodynamic) in data set [4] is > 710 µg/mL.
Taken in the same sequence, the figures for `COC(=O)C1=C(CN2CCOC[C@H]2C(=O)O)NC(c2nccs2)=N[C@H]1c1cccc(F)c1Cl` [Example 47, (S)-4-[(R)-6-(2-Chloro-3-fluoro-phenyl)-5-methoxycarbonyl-2-thiazol-2-yl-3,6-dihydro-pyrimidin-4-ylmethyl]-morpholine-3-carboxylic acid] were 4.4 nM, > 100000 nM, >2273, 1.46 mL/min/kg and > 660 µg/mL.
For `CCOC(=O)C1=C(CN2CCOC[C@H]2C(=O)O)NC(c2nccs2)=N[C@H]1c1ccc(F)c(F)c1C` [Example 96, (S)-4-[(S)-6-(3,4-Difluoro-2-methyl-phenyl)-5-ethoxycarbonyl-2-thiazol-2-yl-3,6-dihydro-pyrimidin-4-ylmethyl]-morpholine-3-carboxylic acid] the same measures were 0.6 nM, 97000 nM, 161667, 4.8 mL/min/kg and > 628 µg/mL.
Regarding `CC(C)OC(=O)C1=C(CN2CCOC[C@H]2C(=O)O)NC(c2nccs2)=N[C@H]1c1ccc(F)cc1Cl` [Example 98, (S)-4-[(R)-6-(2-Chloro-4-fluoro-phenyl)-5-isopropoxycarbonyl-2-thiazol-2-yl-3,6-dihydro-pyrimidin-4-ylmethyl]-morpholine-3-carboxylic acid], the EC50 in the data set with HBV [1] was 17 nM. Also, the CC50 with HepDE19 cells was 72000 nM. Also, the “Selectivity index (CC50/EC50)” value in the data set with HBV [2] is 4224. Further, the “Human Hepatic Clearance” value in data set [3] was 0 mL/min/kg. Further, the solubility (thermodynamic) in data set [4] was > 650 µg/mL.
Consider `O=C(OCC(F)(F)F)C1=C(CN2CCOC[C@H]2C(=O)O)NC(c2nccs2)=N[C@H]1c1ccc(F)cc1Cl` [Example 51, (S)-4-[(R)-6-(2-Chloro-4-fluoro-phenyl)-2-thiazol-2-yl-5-(2,2,2-trifluoro-ethoxycarbonyl)-3,6-dihydro-pyrimidin-4-ylmethyl]-morpholine-3-carboxylic acid], for which, in the data set with HBV [1], the EC50 stood at 13 nM. Moreover, in the data set on HepDE19 cells, the CC50 amounted to 27000 nM. Also, the “Selectivity index (CC50/EC50)” value with HBV [2] came out at 2117. Besides, in data set [3], the “Human Hepatic Clearance” value was 0 mL/min/kg. Further, the thermodynamic solubility in data set [4] was > 695 µg/mL.
Taken in the same sequence, the figures for `CCOC(=O)C1=C(CN2CCOC[C@H]2C(=O)O)NC(c2nccs2)=N[C@H]1c1ccc(F)cc1F` [Example 58, (S)-4-[(R)-6-(2,4-Difluoro-phenyl)-5-ethoxycarbonyl-2-thiazol-2-yl-3,6-dihydro-pyrimidin-4-ylmethyl]-morpholine-3-carboxylic acid] were 14 nM, > 100000 nM, >7353, 1.26 mL/min/kg and > 638 µg/mL.
For the compound `COC(=O)C1=C(CN2CCOC[C@H]2C(=O)O)NC(c2ncoc2C)=N[C@H]1c1ccc(F)cc1Cl` [Example 68, (S)-4-[(R)-6-(2-Chloro-4-fluoro-phenyl)-5-methoxycarbonyl-2-(5-methyl-oxazol-4-yl)-3,6-dihydro-pyrimidin-4-ylmethyl]-morpholine-3-carboxylic acid], in the data set on HBV [1], the EC50 was 14 nM. Besides, the CC50 in the data set with HepDE19 cells is > 100000 nM. Also, the “Selectivity index (CC50/EC50)” value in the data set with HBV [2] was >7407. Moreover, the “Human Hepatic Clearance” value in data set [3] was 0.23 mL/min/kg. For the same compound, the thermodynamic solubility in data set [4] is > 627 µg/mL.
